In ChEMBL document CHEMBL1201862, “PubChem BioAssay data set” (2004):
Calls of active or inactive are those of the source.

Key:
Caspase-7 = Caspase-7 (Homo sapiens, UniProt P55210); assay: procaspase-7 activators, dose response, dual procaspase-3/-7 activator project, biochemical, absorbance, human (AID 504330)
[1] = target: T1, Replicative DNA helicase DnaB (Mycobacterium tuberculosis, UniProt P9WMR3); assay: DnaB intein splicing inhibitors, dose response, biochemical, cell-free fluorescence (AID 449749); type: functional
T1 sequence (P9WMR3 whole entry): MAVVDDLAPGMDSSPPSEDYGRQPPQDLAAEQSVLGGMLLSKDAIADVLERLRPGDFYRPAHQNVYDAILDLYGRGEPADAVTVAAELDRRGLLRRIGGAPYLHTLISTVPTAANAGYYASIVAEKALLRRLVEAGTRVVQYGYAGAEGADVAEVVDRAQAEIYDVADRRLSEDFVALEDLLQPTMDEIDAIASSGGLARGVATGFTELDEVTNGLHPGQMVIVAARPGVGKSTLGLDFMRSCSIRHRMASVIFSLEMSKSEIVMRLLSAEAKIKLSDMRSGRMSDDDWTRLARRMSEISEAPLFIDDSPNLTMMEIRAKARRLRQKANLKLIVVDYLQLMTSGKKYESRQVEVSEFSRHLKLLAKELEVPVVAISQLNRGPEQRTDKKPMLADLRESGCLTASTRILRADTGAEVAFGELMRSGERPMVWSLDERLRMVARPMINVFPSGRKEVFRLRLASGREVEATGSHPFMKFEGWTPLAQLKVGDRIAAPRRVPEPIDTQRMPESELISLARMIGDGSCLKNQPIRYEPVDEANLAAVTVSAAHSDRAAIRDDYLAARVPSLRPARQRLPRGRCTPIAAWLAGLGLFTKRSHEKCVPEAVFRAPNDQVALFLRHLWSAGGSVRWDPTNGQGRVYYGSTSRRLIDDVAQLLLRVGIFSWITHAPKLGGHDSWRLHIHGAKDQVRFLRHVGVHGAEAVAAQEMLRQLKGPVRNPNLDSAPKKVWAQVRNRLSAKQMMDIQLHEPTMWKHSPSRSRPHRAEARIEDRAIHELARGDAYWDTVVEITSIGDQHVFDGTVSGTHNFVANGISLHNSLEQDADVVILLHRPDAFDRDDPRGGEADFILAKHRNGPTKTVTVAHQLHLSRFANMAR

Caspase-3 = target: T2, Caspase-3 (Homo sapiens, UniProt P42574); assay: procaspase-3 activation potency of dual hits, dose response, counter-screen for dual procaspase-3/7 activator project, biochemical, absorbance, PC-3 D3A mutant (AID 504328)
T2 sequence (P42574 whole entry): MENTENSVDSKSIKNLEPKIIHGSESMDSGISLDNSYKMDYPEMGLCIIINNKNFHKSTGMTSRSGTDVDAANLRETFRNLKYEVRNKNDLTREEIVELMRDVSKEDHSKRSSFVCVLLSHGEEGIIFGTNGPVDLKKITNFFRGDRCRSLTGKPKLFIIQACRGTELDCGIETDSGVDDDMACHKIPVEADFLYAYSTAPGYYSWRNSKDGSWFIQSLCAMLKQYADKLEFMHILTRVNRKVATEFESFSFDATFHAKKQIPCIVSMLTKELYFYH

Protein RecA = target: T3, Protein RecA (Mycobacterium tuberculosis, UniProt P9WHJ3); assay: Fluorescence Cell-Free Homogeneous Dose Retest to Identify Inhibitors of RecA-Intein Splicing Activity. [Related pubchem assays (depositor defined):AID2097, AID2223, AID489010, AID492950]; type: functional
T3 sequence (P9WHJ3 whole entry): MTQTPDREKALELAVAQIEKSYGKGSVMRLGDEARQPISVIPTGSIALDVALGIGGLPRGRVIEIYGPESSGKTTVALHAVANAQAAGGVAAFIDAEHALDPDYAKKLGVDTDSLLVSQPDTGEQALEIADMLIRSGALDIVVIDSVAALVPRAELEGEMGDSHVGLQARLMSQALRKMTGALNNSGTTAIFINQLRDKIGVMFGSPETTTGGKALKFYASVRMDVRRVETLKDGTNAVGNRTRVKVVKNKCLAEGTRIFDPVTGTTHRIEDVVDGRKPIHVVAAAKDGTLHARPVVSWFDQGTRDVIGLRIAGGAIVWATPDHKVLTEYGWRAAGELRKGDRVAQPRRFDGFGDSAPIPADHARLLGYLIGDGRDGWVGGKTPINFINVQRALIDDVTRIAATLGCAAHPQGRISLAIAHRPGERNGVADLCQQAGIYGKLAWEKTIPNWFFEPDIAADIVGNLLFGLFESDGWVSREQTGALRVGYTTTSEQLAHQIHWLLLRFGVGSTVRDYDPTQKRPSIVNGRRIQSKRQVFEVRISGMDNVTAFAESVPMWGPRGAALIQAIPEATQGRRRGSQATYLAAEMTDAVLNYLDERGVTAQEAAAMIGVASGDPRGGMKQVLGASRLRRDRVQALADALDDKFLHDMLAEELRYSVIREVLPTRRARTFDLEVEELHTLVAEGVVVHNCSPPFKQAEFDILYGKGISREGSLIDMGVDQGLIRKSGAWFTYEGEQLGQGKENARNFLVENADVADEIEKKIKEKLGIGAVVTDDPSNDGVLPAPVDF

[2] = target: T4, Tyrosine-protein phosphatase non-receptor type 7 (Homo sapiens, UniProt P35236); assay: SAR analysis of chemical inhibitors of HePTP using a Fluorescent assay - Set 2. [Related pubchem assays (depositor defined):AID1059, AID1077, AID1661, AID2085, AID521]; type: functional
T4 sequence (P35236 whole entry): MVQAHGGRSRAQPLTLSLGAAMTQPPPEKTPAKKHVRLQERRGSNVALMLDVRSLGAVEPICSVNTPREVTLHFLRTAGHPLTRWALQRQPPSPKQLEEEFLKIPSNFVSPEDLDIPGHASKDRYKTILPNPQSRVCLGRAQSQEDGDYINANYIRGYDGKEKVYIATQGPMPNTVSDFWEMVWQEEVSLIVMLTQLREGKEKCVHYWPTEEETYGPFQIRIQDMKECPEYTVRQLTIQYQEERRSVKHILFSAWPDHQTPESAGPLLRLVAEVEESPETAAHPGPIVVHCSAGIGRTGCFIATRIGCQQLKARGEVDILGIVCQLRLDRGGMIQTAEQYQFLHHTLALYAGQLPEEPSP

[3] = target: Dual specificity protein phosphatase 3 (Homo sapiens, UniProt P51452); assay: SAR VHR1 Fluorescent Assay for In Vitro dose response studies Set 2. [Related pubchem assays (depositor defined):AID1654, AID1661, AID1878]; type: functional
[4] = target: Alkaline phosphatase, placental type (Homo sapiens, UniProt P05187); assay: PLAP enzyme inhibitors, confirmation, biochemical, luminescence (AID 1512); type: functional
[5] = target: T5, G-protein coupled receptor 55 (Homo sapiens, UniProt Q9Y2T6); assay: GPR55 agonists via beta-arrestin recruitment, primary screen, imaging, U2OS cells, beta-arrestin-GFP redistribution (AID 1961); type: functional
[6] = target: Voltage-dependent T-type calcium channel subunit alpha-1H (Homo sapiens, UniProt O95180); type: functional;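 note: channel activity triggered by adding a high calcium stimulation buffer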
[7] = target: T5, G-protein coupled receptor 55; assay: GPR55 antagonists blocking LPI-driven arrestin recruitment, primary screen, imaging, U2OS, beta-arrestin-GFP, LPI agonist (AID 2013); type: functional;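 note: antagonist potency measured as reduced agonist-driven arrestin aggregation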

T5 sequence (Q9Y2T6 whole entry): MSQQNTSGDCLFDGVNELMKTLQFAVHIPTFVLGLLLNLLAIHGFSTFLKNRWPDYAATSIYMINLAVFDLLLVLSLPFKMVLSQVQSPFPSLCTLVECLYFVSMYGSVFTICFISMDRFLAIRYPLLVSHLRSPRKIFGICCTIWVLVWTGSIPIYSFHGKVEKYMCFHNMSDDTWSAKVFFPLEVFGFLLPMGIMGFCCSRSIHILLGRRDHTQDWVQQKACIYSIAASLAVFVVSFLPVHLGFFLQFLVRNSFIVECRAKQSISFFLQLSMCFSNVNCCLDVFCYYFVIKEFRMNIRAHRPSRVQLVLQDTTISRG
Sequence of Dual specificity protein phosphatase 3 (P51452 whole entry): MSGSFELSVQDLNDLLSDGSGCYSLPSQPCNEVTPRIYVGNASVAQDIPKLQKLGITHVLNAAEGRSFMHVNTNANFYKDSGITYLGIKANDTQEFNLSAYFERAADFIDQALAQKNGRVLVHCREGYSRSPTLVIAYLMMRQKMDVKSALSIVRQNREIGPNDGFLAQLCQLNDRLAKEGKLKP
Sequence of Alkaline phosphatase, placental type (P05187 whole entry): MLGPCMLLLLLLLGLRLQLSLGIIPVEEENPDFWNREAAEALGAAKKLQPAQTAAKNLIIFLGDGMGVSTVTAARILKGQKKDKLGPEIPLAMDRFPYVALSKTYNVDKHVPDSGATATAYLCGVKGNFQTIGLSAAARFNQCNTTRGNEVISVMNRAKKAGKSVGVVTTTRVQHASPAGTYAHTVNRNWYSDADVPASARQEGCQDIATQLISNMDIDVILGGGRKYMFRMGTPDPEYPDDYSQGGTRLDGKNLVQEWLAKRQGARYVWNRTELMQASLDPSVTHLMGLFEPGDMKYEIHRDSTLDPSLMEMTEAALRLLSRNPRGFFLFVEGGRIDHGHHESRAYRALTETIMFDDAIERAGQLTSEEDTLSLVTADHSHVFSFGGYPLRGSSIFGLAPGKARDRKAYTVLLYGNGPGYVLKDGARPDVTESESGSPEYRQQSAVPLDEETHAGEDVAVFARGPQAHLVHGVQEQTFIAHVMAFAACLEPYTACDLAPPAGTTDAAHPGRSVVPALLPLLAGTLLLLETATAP
Sequence of Voltage-dependent T-type calcium channel subunit alpha-1H (O95180 whole entry): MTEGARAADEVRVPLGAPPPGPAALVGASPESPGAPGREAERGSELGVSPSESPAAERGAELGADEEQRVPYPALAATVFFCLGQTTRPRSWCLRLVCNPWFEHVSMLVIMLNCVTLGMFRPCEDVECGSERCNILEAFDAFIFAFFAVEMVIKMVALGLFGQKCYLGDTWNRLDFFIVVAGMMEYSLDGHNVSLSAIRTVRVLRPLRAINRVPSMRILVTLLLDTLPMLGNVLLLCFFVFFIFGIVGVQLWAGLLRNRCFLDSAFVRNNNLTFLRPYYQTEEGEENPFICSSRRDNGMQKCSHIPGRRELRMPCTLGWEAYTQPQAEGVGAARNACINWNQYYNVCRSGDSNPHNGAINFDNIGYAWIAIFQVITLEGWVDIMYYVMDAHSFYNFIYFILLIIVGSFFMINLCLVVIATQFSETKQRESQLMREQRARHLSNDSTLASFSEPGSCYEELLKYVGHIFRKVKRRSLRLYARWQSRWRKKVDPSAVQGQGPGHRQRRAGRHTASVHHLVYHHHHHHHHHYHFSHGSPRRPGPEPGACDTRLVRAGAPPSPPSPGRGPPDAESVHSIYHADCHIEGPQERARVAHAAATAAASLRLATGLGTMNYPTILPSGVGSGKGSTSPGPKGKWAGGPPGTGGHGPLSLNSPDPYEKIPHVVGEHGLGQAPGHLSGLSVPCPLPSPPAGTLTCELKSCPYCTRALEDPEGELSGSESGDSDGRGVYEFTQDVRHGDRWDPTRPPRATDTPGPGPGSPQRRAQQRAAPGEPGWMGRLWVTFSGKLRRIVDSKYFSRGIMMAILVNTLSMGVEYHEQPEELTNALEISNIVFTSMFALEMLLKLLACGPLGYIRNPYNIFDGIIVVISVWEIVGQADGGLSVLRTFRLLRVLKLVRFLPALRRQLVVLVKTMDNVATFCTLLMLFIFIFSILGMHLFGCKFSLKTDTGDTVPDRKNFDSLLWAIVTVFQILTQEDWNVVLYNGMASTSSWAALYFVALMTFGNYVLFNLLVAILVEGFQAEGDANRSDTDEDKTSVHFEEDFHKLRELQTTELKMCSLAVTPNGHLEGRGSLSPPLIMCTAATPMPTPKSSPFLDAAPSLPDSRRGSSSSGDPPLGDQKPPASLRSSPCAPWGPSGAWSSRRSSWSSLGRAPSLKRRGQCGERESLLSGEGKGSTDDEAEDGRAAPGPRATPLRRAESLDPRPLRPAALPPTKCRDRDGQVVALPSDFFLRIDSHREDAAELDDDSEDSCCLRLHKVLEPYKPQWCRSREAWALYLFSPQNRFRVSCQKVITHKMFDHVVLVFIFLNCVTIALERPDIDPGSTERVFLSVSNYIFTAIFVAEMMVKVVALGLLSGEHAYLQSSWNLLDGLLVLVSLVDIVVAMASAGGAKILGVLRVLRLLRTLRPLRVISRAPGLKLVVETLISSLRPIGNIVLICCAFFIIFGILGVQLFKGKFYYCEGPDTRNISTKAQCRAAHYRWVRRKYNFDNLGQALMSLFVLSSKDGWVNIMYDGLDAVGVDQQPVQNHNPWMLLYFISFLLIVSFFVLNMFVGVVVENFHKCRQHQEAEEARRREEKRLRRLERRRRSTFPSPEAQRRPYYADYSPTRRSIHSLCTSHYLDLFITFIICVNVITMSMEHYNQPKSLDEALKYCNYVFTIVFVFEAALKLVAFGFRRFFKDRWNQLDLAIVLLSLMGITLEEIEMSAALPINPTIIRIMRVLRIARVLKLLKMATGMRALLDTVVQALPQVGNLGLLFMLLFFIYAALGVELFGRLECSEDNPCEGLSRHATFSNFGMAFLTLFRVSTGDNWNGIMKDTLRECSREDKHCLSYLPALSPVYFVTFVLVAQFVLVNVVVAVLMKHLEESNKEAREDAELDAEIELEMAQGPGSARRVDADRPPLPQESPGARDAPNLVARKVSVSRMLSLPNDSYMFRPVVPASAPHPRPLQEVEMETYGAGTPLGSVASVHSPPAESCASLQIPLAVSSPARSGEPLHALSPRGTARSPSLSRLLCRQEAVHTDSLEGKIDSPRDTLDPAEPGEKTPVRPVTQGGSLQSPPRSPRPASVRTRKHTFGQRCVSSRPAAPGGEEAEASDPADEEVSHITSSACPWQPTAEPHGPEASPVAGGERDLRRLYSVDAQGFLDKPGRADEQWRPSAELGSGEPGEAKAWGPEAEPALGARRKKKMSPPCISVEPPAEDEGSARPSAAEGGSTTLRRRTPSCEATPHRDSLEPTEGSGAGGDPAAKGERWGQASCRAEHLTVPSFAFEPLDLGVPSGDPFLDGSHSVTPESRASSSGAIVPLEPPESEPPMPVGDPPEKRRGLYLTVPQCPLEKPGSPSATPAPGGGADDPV

For `Cc1n[nH]c2c1C(c1c[nH]c3ccccc13)C(C#N)=C(N)O2` (stereo not given), the EC50 (Caspase-7) was 27.8 µM (inactive), the AC50 [1] was 3.79 µM (active) and the EC50 (Caspase-3) was 23.1 µM (inactive). The EC50 (Protein RecA) was 2.03 µM (active).

`Cc1ccc(NC(S)=NNC(=O)c2cn(C)nc2C)cc1` was tested, and the IC50 [2] was > 100 µM (inactive), the IC50 [3] was > 100 µM (inactive) and the IC50 [4] was > 100 µM (inactive).

For `COc1cc2c(cc1NC(=O)CSc1ccc(Cl)cc1)oc1ccccc12`, the EC50 [5] was 20.7 µM (inactive).

For `CCN(c1ccccc1)S(=O)(=O)c1ccc(NCC2COc3ccccc3O2)nc1` (stereo not given), the EC50 [6] was 7.97 µM (active) and the IC50 [7] was 6.56 µM (active).
